Results from patent US20100143935A1, “c-KIT Phosphorylation in Cancer” (Apocell, Inc., priority 2006, published 2010).
Entries after “also recorded” stand apart in the source; their conditions may differ.

Key:
[1] = test system: MeWo stable cell lines expressing PK or with PTP knock down; assay: Imatinib sensitivity of stable MeWo cell lines expressing PK or with PTP knock down; assay type: cell-based, human; conditions: PK-expressing or PTP knock down lines vs empty vector control cells
[2] = test system: endothelial and tumor cells; assay: CD31-TUNEL dual immunofluorescence of tumor biopsies before and 2 weeks after imatinib; assay type: in vivo, human; conditions: for apoptosis of endothelial and tumor cells: responder, after 2 weeks of imatinib treatment
Source text: FIG. 4. […] The stained samples were further analyzed for apoptotic cells by TUNEL assay (green). Representative images are shown. The corresponding CD31 and TUNEL images are merged (Composite).

[3] = test system: melanoma; conditions: 800 mg/day; 26 patients; cited from earlier work
[4] = test system: c-KIT phosphorylation at Y721; assay: Laser scanning cytometry of phospho-Y721 c-KIT in tumor biopsies before and 2 weeks after imatinib; assay type: in vivo, human; conditions: responder, tumor biopsy 2 weeks after treatment vs baseline
Source text: FIG. 2. […] Tumor biopsies were stained by anti-phospho-Y721 c-KIT antibody followed by secondary antibody conjugated with a fluorescence probe. Laser scanning cytometry (LSC) was used to analyze the […] (MFI) across the tumor biopsies.
FIG. 3. […] (Top panels), Tumor biopsies obtained from the responder at baseline and 2 weeks after treatment (Post-treatment) were stained by anti-phospho-Y721 c-KIT antibody followed by secondary antibody conjugated with a fluorescence probe. Representative images are shown. The tumor sample stained only by the secondary antibody serves as a negative control. (Bottom panels), LSC was used to analyze the intensity of the phospho-Y721 of c-KIT (Cy5) across the entire cross section of tumor biopsies.
For c-KIT phosphorylation, tumor biopsies obtained at baseline (pre-treatment) and during the second week of treatment (post-treatment) were assayed. […] We also examined the levels of phospho-Y703.

[5] = molecular target: T1, Phospho-c-KIT (Y703) (Homo sapiens, UniProt P10721); assay: c-KIT phosphorylation (Y703) in GIST patients treated with sunitinib; assay type: in vivo
T1 construct: GIST Patients Treated with Sunitinib; from tissue; host or cells: tumour material of GIST patients treated with sunitinib
T1 sequence (P10721 26-976): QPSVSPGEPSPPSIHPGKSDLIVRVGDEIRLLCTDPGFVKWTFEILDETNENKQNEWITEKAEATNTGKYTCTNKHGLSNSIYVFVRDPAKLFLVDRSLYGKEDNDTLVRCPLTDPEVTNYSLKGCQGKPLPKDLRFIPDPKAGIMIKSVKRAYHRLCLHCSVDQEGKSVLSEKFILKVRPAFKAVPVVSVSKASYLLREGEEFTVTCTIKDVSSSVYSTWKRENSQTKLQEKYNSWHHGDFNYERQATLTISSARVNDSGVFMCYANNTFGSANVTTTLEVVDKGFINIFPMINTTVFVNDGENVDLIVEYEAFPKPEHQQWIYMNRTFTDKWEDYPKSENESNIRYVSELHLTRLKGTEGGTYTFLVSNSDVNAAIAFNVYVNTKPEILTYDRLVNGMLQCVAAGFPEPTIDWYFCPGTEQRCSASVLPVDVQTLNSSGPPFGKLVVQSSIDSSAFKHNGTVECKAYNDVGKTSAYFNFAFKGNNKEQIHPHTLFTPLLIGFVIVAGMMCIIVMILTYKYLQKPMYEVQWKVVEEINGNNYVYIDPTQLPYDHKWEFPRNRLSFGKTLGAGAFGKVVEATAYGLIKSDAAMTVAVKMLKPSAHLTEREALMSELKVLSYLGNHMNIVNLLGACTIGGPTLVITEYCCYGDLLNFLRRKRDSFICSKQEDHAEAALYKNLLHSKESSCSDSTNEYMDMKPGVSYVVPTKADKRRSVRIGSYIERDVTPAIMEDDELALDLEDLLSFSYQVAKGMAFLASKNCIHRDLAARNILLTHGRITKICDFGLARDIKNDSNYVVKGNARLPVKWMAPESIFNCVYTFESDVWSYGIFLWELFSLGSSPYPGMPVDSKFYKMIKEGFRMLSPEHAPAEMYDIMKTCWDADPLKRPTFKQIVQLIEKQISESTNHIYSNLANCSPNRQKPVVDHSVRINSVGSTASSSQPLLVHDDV

[6] = molecular target: T2, Phospho-c-KIT (Y721) (Homo sapiens, UniProt P10721); assay: c-KIT phosphorylation (Y721) in GIST patients treated with sunitinib; assay type: in vivo
T2 construct: GIST Patients Treated with Sunitinib; from tissue; host or cells: tumour material of GIST patients treated with sunitinib
T2 sequence (P10721 26-976): as above

Phospho-c-KIT (Y703) change ([5]; NON-Responder) | Phospho-c-KIT (Y703) change ([5]; Responder) | Phospho-c-KIT (Y721) change ([6]; NON-Responder) | Phospho-c-KIT (Y721) change ([6]; Responder) | SMILES | sensitivity to imatinib-induced growth inhibition and apoptosis [1] | increase of apoptotic endothelial and tumor cells ([2]; nonresponding patients' tumors) | apoptosis of endothelial and tumor cells [2] | apoptosis of endothelial and tumor cells ([2]; listed as imatinib) | toxicity [3] | levels of phospho-Y721 of c-KIT after imatinib treatment [4] | levels of phospho-Y721 of c-KIT after imatinib treatment ([4]; listed as imatinib)
– | – | – | – | Cc1ccc(NC(=O)c2ccc(CN3CCN(C)CC3)cc2)cc1Nc1nccc(-c2cccnc2)n1 [Imatinib] | more sensitive | not seen | induces | higher levels of apoptosis; also recorded: substantial increase | significant toxicity | inhibits | significantly reduced; also recorded: significant inhibition
45% increase | 57% decrease | 117% increase | 94% decrease | CCN(CC)CCNC(=O)c1c(C)[nH]c(/C=C2\C(=O)Nc3ccc(F)cc32)c1C [Sunitinib, N-[2-(diethylamino)ethyl]-5-[(Z)-(5-fluoro-2-oxo-1,2-dihydro-3H-indol-3-ylidene)methyl]-2,4-dimethyl-1H-pyrrole-3-carboxamide] | – | – | – | – | – | – | –
